Results: US11464770B2, “Anticancer pharmaceutical composition” (NATIONAL CANCER CENTER, priority 2016, dated 2022)
Where two headings read alike, the source gives them in different places.

Experiments:
[1] = test system: blood cancer cell lines (e.g. HL-60, Jurkat, Raji, Ramos, Daudi, MOLT-4); assay: Cell based assay, cell viability (CellTiter-Glo), blood cancer cell lines; details: Homo sapiens
Summary of the method: (§1)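 Seed cells after trypsin-EDTA treatment, hold 24 h at constant temperature, then add compound to a final 0 to 2 μM. Culture 72 h more and measure viability via ATP detection.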

[2] = test system: pancreatic cancer cell lines (e.g. MIA PaCa-2); assay: Cell based assay, cell viability (CellTiter-Glo), pancreatic cancer cell lines; details: Homo sapiens
Summary of the method: as §1

[3] = test system: cervical carcinoma cell lines; assay: Cell based assay, cell viability (CellTiter-Glo), cervical carcinoma cell lines; details: Homo sapiens; HeLa cells
[4] = MV4-11, blood cancer cell line MV-4-11, 72 hours, read-out: IC50, MV-4-11
[5] = blood cancer cell line Daudi, 72 hours, read-out: IC50, Daudi
[6] = blood cancer cell line HL-60, 72 hours, read-out: IC50, HL-60
[7] = blood cancer cell line Jurkat, 72 hours, read-out: IC50, Jurkat
[8] = blood cancer cell line MOLT-4, 72 hours, read-out: IC50, MOLT-4
[9] = blood cancer cell line Raji, 72 hours, read-out: IC50, Raji
[10] = blood cancer cell line Ramos (RA 1), 72 hours, read-out: IC50, Ramos (RA 1)
[11] = blood cancer cell line U-937, 72 hours, read-out: IC50, U-937
[12] = pancreatic cancer cell line AsPC-1, 72 hours, read-out: IC50, AsPC-1
[13] = pancreatic cancer cell line BxPC-3, 72 hours, read-out: IC50, BxPC-3
[14] = pancreatic cancer cell line CFPAC-1, 72 hours, read-out: IC50, CFPAC-1
[15] = pancreatic cancer cell line Capan-1, 72 hours, read-out: IC50, Capan-1
[16] = pancreatic cancer cell line Capan-2, 72 hours, read-out: IC50, Capan-2
[17] = pancreatic cancer cell line MIA PaCa-2, 72 hours, read-out: IC50, MIA PaCa-2
[18] = pancreatic cancer cell line PANC-1, 72 hours, read-out: IC50, PANC-1

SMILES	IC50 [1, 4] [nM]	IC50 [1, 5] [nM]	IC50 [1, 6] [nM]	IC50 [1, 7] [nM]	IC50 [1, 8] [nM]	IC50 [1, 9] [nM]	IC50 [1, 10] [nM]	IC50 [1, 11] [nM]	IC50 [2, 12] [nM]	IC50 [2, 13] [nM]	IC50 [2, 14] [nM]	IC50 [2, 15] [nM]	IC50 [2, 16] [nM]	IC50 [2, 17] [nM]	IC50 [2, 18] [nM]	IC50 [3] [nM]
CC(=O)c1c([S+]([O-])CC#N)[nH]c2c(Br)ccc(Cl)c2c1=O (centres unmarked) [Compound 65, 2-((3-acetyl-8-bromo-5-chloro-4-oxo-1,4-dihydroquinolin-2-yl)sulfinyl)acetonitrile]	> 2000	> 2000	> 2000	> 2000	> 2000	> 2000	> 2000	> 2000	> 2000	> 2000	> 10000	> 2000	> 2000	> 2000	> 2000	> 10000
CC(=O)c1c(SCC#N)[nH]c2c(Br)ccc(Cl)c2c1=O [Compound 66, 2-((3-acetyl-8-bromo-5-chloro-4-oxo-1,4-dihydroquinolin-2-yl)thio)acetonitrile]	> 2000	> 2000	> 2000	> 2000	> 2000	> 2000	> 2000	> 2000	> 2000	> 2000	> 10000	> 2000	> 2000	> 2000	> 2000	> 10000
CC(=O)c1c(S/C=C\C(=O)O)[nH]c2c(Br)ccc(Cl)c2c1=O [Compound 67, (Z)-3-((3-acetyl-8-bromo-5-chloro-4-oxo-1,4-dihydroquinolin-2-yl)thio)acrylic acid]	> 2000	> 2000	> 2000	> 2000	> 2000	> 2000	> 2000	> 2000	> 2000	> 2000	> 10000	> 2000	> 2000	> 2000	> 2000	> 10000
CC(=O)c1c([S+]([O-])Cc2ccc(S(F)(F)(F)(F)F)cc2)[nH]c2c(Br)ccc(Cl)c2c1=O (centres unmarked) [Compound 68, 3-acetyl-8-bromo-5-chloro-2-((4-(pentafluoro-16-sulfanyl)benzyl)sulfinyl)quinolin-4(1H)-one]	1300	1210	1710	1000	1070	1020	1660	> 2000	> 2000	> 2000	> 10000	> 2000	> 2000	1120	> 2000	> 2000
CC(=O)c1c([S+]([O-])Cc2ccc(S(F)(F)(F)(F)F)cc2F)[nH]c2c(Br)ccc(Cl)c2c1=O (centres unmarked) [Compound 69, 3-acetyl-8-bromo-5-chloro-2-((2-fluoro-4-(pentafluoro-16-sulfanyl)benzyl)sulfinyl)quinolin-4(1H)-one]	1470	1430	1880	1130	1300	1110	1870	> 2000	> 2000	> 2000	> 10000	> 2000	> 2000	1370	> 2000	> 10000
CC(=O)c1c([S+]([O-])Cc2cccc(S(F)(F)(F)(F)F)c2)[nH]c2c(Br)ccc(Cl)c2c1=O (centres unmarked) [Compound 77, 3-acetyl-8-bromo-5-chloro-2-((3-(pentafluoro--sulfanyl)benzyl)sulfinyl)quinolin-4(1H)-one]	> 2000	1420	> 2000	1120	1350	1330	> 2000	> 2000	> 2000	> 2000	> 10000	> 2000	> 2000	1390	> 2000	> 10000
CC(=O)c1c([S+]([O-])Cc2ccc(SC(F)(F)F)cc2)[nH]c2c(Cl)ccc(Cl)c2c1=O (centres unmarked) [Compound 79, 3-acetyl-5,8-dichloro-2-((4-((trifluoromethyl)thio)benzyl)sulfinyl)quinolin-4(1H)-one]	> 2000	> 2000	> 2000	> 2000	> 2000	> 2000	> 2000	> 2000	> 2000	> 2000	> 10000	> 2000	> 2000	> 2000	> 2000	> 10000
CC(=O)c1c([S+]([O-])Cc2ccc(S(F)(F)(F)(F)F)cc2)[nH]c2c(F)ccc(F)c2c1=O (centres unmarked) [Compound 80, 3-acetyl-5,8-difluoro-2-((4-(pentafluoro--sulfanyl)benzyl)sulfinyl)quinolin-4(1H)-one]	> 2000	> 2000	> 2000	> 2000	> 2000	> 2000	> 2000	> 2000	> 2000	> 2000	> 10000	> 2000	> 2000	> 2000	> 2000	> 10000
CC(=O)c1c([S+]([O-])Cc2ccc(C(F)(F)F)o2)[nH]c2c(F)ccc(F)c2c1=O (centres unmarked) [Compound 81, 3-acetyl-5,8-difluoro-2-(((5-(trifluoromethyl)furan-2-yl)methyl)sulfinyl)quinolin-4(1H)-one]	> 2000	> 2000	> 2000	> 2000	> 2000	> 2000	> 2000	> 2000	> 2000	> 2000	> 10000	> 2000	> 2000	> 2000	> 2000	> 10000
CC(=O)c1c([S+]([O-])Cc2cc(C)on2)[nH]c2c(F)ccc(F)c2c1=O (centres unmarked) [Compound 82, 3-acetyl-5,8-difluoro-2-(((5-methylisoxazol-3-yl)methyl)sulfinyl)quinolin-4(1H)-one]	> 2000	> 2000	> 2000	> 2000	> 2000	> 2000	> 2000	> 2000	> 2000	> 2000	> 10000	> 2000	> 2000	> 2000	> 2000	> 10000
CC(C)C(=O)c1c([S+]([O-])Cc2ccc(SC(F)(F)F)cc2)[nH]c2c(F)ccc(F)c2c1=O (centres unmarked) [Compound 85, 5,8-difluoro-3-isobutyryl-2-((4-((trifluoromethyl)thio)benzyl)sulfinyl)quinolin-4(1H)-one]	> 2000	> 2000	> 2000	> 2000	> 2000	> 2000	> 2000	> 2000	> 2000	> 2000	> 10000	> 2000	> 2000	> 2000	> 2000	> 10000
O=C(c1ccccc1)c1c([S+]([O-])Cc2ccc(S(F)(F)(F)(F)F)cc2)[nH]c2c(F)ccc(F)c2c1=O (centres unmarked) [Compound 87, 3-benzoyl-5,8-difluoro-2-((4-(pentafluoro--sulfanyl)benzyl)sulfinyl)quinolin-4(1H)-one]	> 2000	> 2000	> 2000	> 2000	> 2000	> 2000	> 2000	> 2000	> 2000	> 2000	> 10000	> 2000	> 2000	> 2000	> 2000	> 10000
Cc1cc(C[S+]([O-])c2[nH]c3c(Cl)ccc(Cl)c3c(=O)c2C(=O)c2ccccc2)no1 (centres unmarked) [Compound 88, 3-benzoyl-5,8-dichloro-2-(((5-methylisoxazol-3-yl)methyl)sulfinyl)quinolin-4(1H)-one]	> 2000	> 2000	> 2000	> 2000	> 2000	> 2000	> 2000	> 2000	> 2000	> 2000	> 10000	> 2000	> 2000	> 2000	> 2000	> 10000
CC(=O)c1c([S+]([O-])CN2C(=O)c3ccccc3C2=O)[nH]c2c(Cl)ccc(Cl)c2c1=O (centres unmarked) [Compound 90, 2-(((3-acetyl-5,8-dichloro-4-oxo-1,4-dihydroquinolin-2-yl)sulfinyl)methyl)isoindoline-1,3-dione]	> 2000	> 2000	> 2000	> 2000	> 2000	> 2000	> 2000	> 2000	> 2000	> 2000	> 10000	> 2000	> 2000	> 2000	> 2000	> 10000
